From PubChem BioAssay AID1919002 (Molecular Pharmacology Branch, DTP, NCI, 2023)

Tested on: 743489-274-T-PDC complex spheroid growth
Experiment: Anticancer human tumor 743489-274-T-PDC patient-derived renal cell carcinoma cell line growth inhibition [AhR]
Conditions: for IC50: curve of first compound; for viability, T/C: stronger effect = lower value
How it was run: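 Agents were dosed in half-log steps down from roughly clinical Cmax, or from 10 microM where Cmax was unknown, alone and with AhR antagonists. Read-out: percent test/control growth of tumor spheroids containing HUVEC and MSC stromal cells.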

[1] = second compound 0.1 µM, first compound 0.0316 µM
[2] = second compound 0.1 µM, first compound 0.1 µM
[3] = second compound 0.1 µM, first compound 0.316 µM
[4] = second compound 0.1 µM, first compound 1 µM
[5] = second compound 0.316 µM, first compound 0.0316 µM
[6] = second compound 0.316 µM, first compound 0.1 µM
[7] = second compound 0.316 µM, first compound 0.316 µM
[8] = second compound 0.316 µM, first compound 1 µM
[9] = second compound 1 µM, first compound 0.0316 µM
[10] = second compound 1 µM, first compound 0.1 µM
[11] = second compound 1 µM, first compound 0.316 µM
[12] = second compound 1 µM, first compound 1 µM
[13] = second compound 3.16 µM, first compound 0.0316 µM
[14] = second compound 3.16 µM, first compound 0.1 µM
[15] = second compound 3.16 µM, first compound 0.316 µM
[16] = second compound 3.16 µM, first compound 1 µM
[17] = second compound 10 µM, first compound 0.0316 µM
[18] = second compound 10 µM, first compound 0.1 µM
[19] = second compound 10 µM, first compound 0.316 µM
[20] = second compound 10 µM, first compound 1 µM
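Also: spheroids exposed to agents for 7 days before readout.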
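For viability, T/C in this document: 100% = DMSO vehicle control wells.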

Structure (SMILES)	IC50 (second compound 0.1 µM)	IC50 (second compound 0.316 µM)	IC50 (second compound 1 µM)	IC50 (second compound 3.16 µM)	IC50 (second compound 10 µM)	viability, T/C [1]	viability, T/C [2]	viability, T/C [3]	viability, T/C [4]	viability, T/C [5]	viability, T/C [6]	viability, T/C [7]	viability, T/C [8]	viability, T/C [9]	viability, T/C [10]	viability, T/C [11]	viability, T/C [12]	viability, T/C [13]	viability, T/C [14]	viability, T/C [15]	other results
Nc1ccn(C2OC(CO)C(O)C2(F)F)c(=O)n1 (stereo not given) + Cc1ccccc1N=Nc1ccc(NC(=O)c2ccnn2C)c(C)c1	> 10000 nM	> 10000 nM	9150 nM	1480 nM	> 10000 nM	65%	62.7%	54.7%	63.4%	66.4%	62%	56.5%	59.4%	61%	57.4%	65.6%	56.7%	68.1%	55.8%	51.9%	viability, T/C (second compound 0.1 µM, first compound 3.16 µM): 57.1%; viability, T/C (second compound 0.1 µM, first compound 10 µM): 59.1%; viability, T/C (second compound 0.316 µM, first compound 3.16 µM): 54.8%; viability, T/C (second compound 0.316 µM, first compound 10 µM): 53.1%; viability, T/C (second compound 1 µM, first compound 3.16 µM): 51.2%; viability, T/C (second compound 1 µM, first compound 10 µM): 50.8%; viability, T/C [16]: 45.5%; viability, T/C (second compound 3.16 µM, first compound 3.16 µM): 50.8%; viability, T/C (second compound 3.16 µM, first compound 10 µM): 52.3%; viability, T/C [17]: 69.9%; viability, T/C [18]: 56.9%; viability, T/C [19]: 51.4%; viability, T/C [20]: 60.6%; viability, T/C (second compound 10 µM, first compound 3.16 µM): 47.8%; viability, T/C (second compound 10 µM, first compound 10 µM): 55.4%
Nc1ncn(C2CC(O)C(CO)O2)c(=O)n1 (stereo not given) + Cc1ccccc1N=Nc1ccc(NC(=O)c2ccnn2C)c(C)c1	> 1000 nM	> 1000 nM	> 1000 nM	> 1000 nM	> 1000 nM	88.6%	92.5%	103%	87.1%	89.8%	87.2%	87.8%	84.7%	101%	79.8%	101%	87.9%	83.9%	74.8%	88.9%	viability, T/C (second compound 0.1 µM, first compound 0.00316 µM): 86.2%; viability, T/C (second compound 0.1 µM, first compound 0.01 µM): 91.2%; viability, T/C (second compound 0.316 µM, first compound 0.00316 µM): 107%; viability, T/C (second compound 0.316 µM, first compound 0.01 µM): 89.2%; viability, T/C (second compound 1 µM, first compound 0.00316 µM): 89.7%; viability, T/C (second compound 1 µM, first compound 0.01 µM): 99.1%; viability, T/C (second compound 3.16 µM, first compound 0.00316 µM): 94.8%; viability, T/C (second compound 3.16 µM, first compound 0.01 µM): 81.7%; viability, T/C [16]: 82.8%; viability, T/C (second compound 10 µM, first compound 0.00316 µM): 92.7%; viability, T/C (second compound 10 µM, first compound 0.01 µM): 88%; viability, T/C [17]: 90%; viability, T/C [18]: 96.2%; viability, T/C [19]: 80.1%; viability, T/C [20]: 82.8%
